Results from patent publication US6365628B1 (Thia Medica AS, priority 1998, dated 2002).

Columns and labels:
Salmonella typhimurium = assay: Test for mutagenic activity in Salmonella typhimurium strains; type: cell-based; settings: 3-1000 mg/plate (TTA) 2-5000 mg/plate (TSA)
Text: Tests for mutagenic activity have been performed by Covance Laboratories Limited, England. […] Furthermore, TTA was not mutagenic when tested in mouse lymphoma cells […] L5178Y.

obese Zucker fa/fa rats = assay: Fatty acid composition in liver and plasma of obese Zucker fa/fa rats (Example 19); type: in vivo, rat; settings: 300 mg/day/kg gavage once daily for 10 days, delta-9-desaturated product of TTA
Protocol: Male obese Zucker fa/fa rats, weighing 100 g at the start of the experiment, were housed in pairs in metal wire cages in a room maintained at 12 h light-dark cycles and a constant temperature of 20±3° C. The animals were acclimatised for at least one week under these conditions before the start of the experiment.
TTA and palmitic acid (control), was suspended in 0.5% (w/v) carboxymethyl cellulose (CMC) and administered at a dose of 300 mg/day/kg body weight, by gastric intubation (gavage) once daily for 10 days. The rats were fasted for 2 hours before termination of the experiment. Blood and organs were collected. Total lipids were extracted from liver and plasma. The lipids were evaporated, saponified and esterified prior to separation using a Carlo Erba 2900 gas-chromatograph.

male Wistar rats = assay: Body weight of male Wistar rats after 12 weeks of treatment (Example 6); type: in vivo, rat; settings: oral TTA
Protocol: 2 groups of 6 male Wistar Rats were randomly selected, and studied for weight development over a period of 12 week. The body weight of each Wistar rat was measured at the start of the experiment. All animals in both groups received individually the same amount of food (nutrition) during the experimental period of 12 weeks. All animals in one of the groups were orally administrated with the medicament comprising TTA. The other group was the control group (CMC). After the 12 week period the body weight of rats were measured again.

dogs = assay: 28 days toxicity study in dogs (GLP), oral TTA; type: in vivo, dog
Text: A 28 days toxicity study in dogs according to GLP guide-lines has been performed by Corning Hazleton (Europe), England. […] Some lipid related parameters were lowered in the animals given high dosages. This is consistent with the pharmacological activity of TTA.

PPARα = target: T1, PPARα (Homo sapiens, UniProt Q07869); assay: Ligand of PPARα; type: binding
T1 sequence (Q07869 1-468): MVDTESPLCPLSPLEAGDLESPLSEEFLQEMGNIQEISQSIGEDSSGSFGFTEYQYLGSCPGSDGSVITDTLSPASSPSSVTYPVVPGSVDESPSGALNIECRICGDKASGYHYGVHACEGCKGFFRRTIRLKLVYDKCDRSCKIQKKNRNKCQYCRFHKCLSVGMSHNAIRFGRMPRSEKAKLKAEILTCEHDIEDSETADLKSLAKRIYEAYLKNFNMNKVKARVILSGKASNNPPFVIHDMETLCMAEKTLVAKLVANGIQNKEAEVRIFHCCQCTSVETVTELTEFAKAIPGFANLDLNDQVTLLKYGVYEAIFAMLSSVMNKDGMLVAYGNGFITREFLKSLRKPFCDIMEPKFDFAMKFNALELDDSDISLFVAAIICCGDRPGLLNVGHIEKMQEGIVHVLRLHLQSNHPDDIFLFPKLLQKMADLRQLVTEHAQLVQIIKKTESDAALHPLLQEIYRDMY

[1] = system: Wistar Charles River rats; assay: Euglycemic hyperinsulinemic clamp, high fat diet induced insulin resistance (Example 12); type: in vivo, rat; settings: HF diet supplemented with TTA, 21 days, 90 min clamp (FIG. 4)
Protocol: After 21 days on their respective diets (see above), the rats were anaesthetised by injection of xylazine hydrochloride (Rometar SPOFA, Prague, Czech Republic; 10 mg/ml) and ketamine hydrochloride (Narkamon SPOFA, Prague, Czech republic; 75 mg/ml), and fitted with chronic carotid artery and jugular vein cannulas as described by Koopmans et al. (Koopmans, S. J., et al., Biochim Biophys Acta, 1115, […] 1992.). The cannulated rats were allowed to recover for two days after surgery before the clamping studies which were carried out according to Kraegen et al. (Kraegen, E. W., et al., Am J Physiol, 248, E353-E362 1983.). Thus, on the third day after surgery, unrestrained conscious rats were given a continuous infusion of porcine insulin (Actrapid, Novo Nordisk, Denmark) at a dose of 6.4 mU per kg per min to achieve plasma insulin levels in the upper physiological range. The arterial blood glucose concentration was clamped at the basal fasting level, by variable infusion of a 30% w/v glucose solution (Leciva, Prague, Czech Republic). […]
Rats weighing 330±20 g were divided into 3 groups (n=9) and fed with three different diets: standard rat chow, high fat diet (HF) and HF supplemented with TTA. […] The glucose infusion rate (GIR) was determined from the period of the clamp where glycemia got stabilised, i.e. between 45-90 minutes after clamp commencement. […]

[2] = system: 5 weeks old Zucker (fa/fa) rats; assay: Blood insulin and glucose in 5 weeks old Zucker (fa/fa) rats (Example 13); type: in vivo, rat; settings: 300 mg/kg/day oral gavage, 11 days (FIG. 5)
Protocol: Glucose (GLU, Boehringer Mannheim, Germany), free fatty acids (NEFA, C ACS-ACOD kit; Wako Chemicals, Dalton, USA) and b-hydroxybutyrate (310-A kit; Sigma Diagnostics Inc., St. Louis, USA) concentrations were measured using enzymatic methods. Insulin concentrations were determined with radioimmunoassay by (CIS bio International, Gif sur Yvette, France) using rat insulin as standard in the Zucker rats. In the Wistar Charles River rats, plasma glucose concentrations were measured with the aid of Beckman Glucose Analyzer (Fullerton, Calif., USA). Plasma insulin levels were measured using a RIA kit from Linco Research Inc. (St. Charles, Mo., USA). Phospholipids were measured by the enzymatic method of bioMérieux, Marcy-l {grave over ( )}Etoile, France, Triacylglycerol by the Technicon Method no. SA4-0324L90, USA and Cholesterol by the Technicon Method no. SA4-0305L90, USA.
The rats were administered TTA at a dose of 300 mg/kg/day suspended in 0.5% CMC (n=6) by oral gavage. Following 11 days of treatment, rats were killed by cervical dislocation. Blood was collected and the levels of insulin and glucose measured as indicated in the method section. Data are means±S.D.

## Tetradecylthioacetic acid [TTA]
Salmonella typhimurium
  Induction of mutations in strains of Salmonella typhimurium: did not induce mutations
Obese Zucker fa/fa rats
  Monounsaturated tetradecylthioacetic acid, fatty acid composition in liver (% of total): 1.1 ± 0.2 % of total
  Monounsaturated tetradecylthioacetic acid, fatty acid composition in plasma (% of total): 0.2 ± 0.1 % of total
Male Wistar rats
  Body weight gain/grams: 234 ± 20 grams
dogs; 500 mg/kg/day
  Effect on body weight: body weight loss
dogs; dose levels of 50 or 500 mg/day/kg
  Evidence of toxicity: no evidence of toxicity
dogs; dose levels up to 500 mg/kg/day
  Tolerability of oral administration: generally well tolerated
PPARα
  Ligand of PPARα: potent ligand
[1]
  Glucose infusion rate (GIR) in euglycemic hyperinsulinemic clamp: fully normal
[2]
  Reduction of blood concentration of glucose: ~15%
  Reduction of blood insulin concentration: ~40%
